# According to US20120094949A1, “HISTONE MODIFICATION PATTERNS FOR CLINICAL DIAGNOSIS AND PROGNOSIS OF CANCER” (The Regents of the University of California, priority 2009, published 2012):
# Columns and labels:
# [1] = test system: pancreatic adenocarcinoma; test: Kaplan-Meier survival analysis comparing adjuvant treatments within histone groups, RTOG 9704 TMA; format: in vivo, human; details: adjuvant chemotherapy; for overall or disease-free survival, gemcitabine or 5-FU: each of the high level histone subgroups
# Description: METHODS: Tissue microarrays (TMAs) from two large pancreatic adenocarcinoma cohorts were examined, including a 195 patient cohort from RTOG 9704, a multi-center phase III randomized treatment trial comparing adjuvant gemcitabine versus 5-fluorouracil (5-FU), and a 140 patient cohort of Stage I or II cancer from UCLA Medical Center. Immunohistochemistry for three histone modifications (H3K4me2, H3K9me2 and H3K18ac) was performed. Positive tumor cell staining of the histone modifications was used to classify patients into low and high staining groups, which were related to clinicopathologic parameters and clinical outcome measures.
# Pancreatic adenocarcinoma patients and tissue microarrays. The RTOG 9704 pancreatic cancer tissue microarray (TMA) consisted of 229 cases of pancreatic adenocarcinoma obtained from patients enrolled in RTOG 9704, a phase III randomized post-operative adjuvant treatment trial comparing 5-fluorouracil (5-FU) to gemcitabine before and after chemoradiation (Regine et al., Jama 299:1019-26 (2008)). In RTOG 9704, all patients received adjuvant chemotherapy (5-FU or gemcitabine) for durations of one month before and three months following chemoradiation therapy, which included 5-FU infusion as a radiation sensitizer. Clinicopathologic factors were collected as part of patient enrollment, as were treatment schedules and follow-up clinical information including toxicity, overall survival and disease-free survival. The UCLA Stage I/II pancreatic cancer TMA consisted of 140 cases of AJCC stage I or II pancreatic adenocarcinoma from the UCLA Department of Pathology and Laboratory Medicine archives, representing patients who underwent complete gross resection of tumor at UCLA Medical Center between 1987 and 2005. All work was performed with appropriate institutional review board approvals.
# Statistical Analysis. Specific histone cut-offs were previously shown to predict survival in subsets of patients with multiple types of carcinoma, including prostate, lung and kidney (Seligson et al., Am J Pathol 174:1619-1628 (2009); Seligson et al., Nature 435:1262-6 (2005)). In order to standardize and apply these same cut-offs in both pancreatic cancer TMAs, each tumor was assigned a percent rank value (quantile) based on median percent of cells staining relative to its TMA dataset using the SAS system procedure RANK with TIES=LOW option, which assigns the smallest of the corresponding ranks for the ties data values. Each tumor was then assigned into a low or high level staining group based on its percent rank, including H3K4me2 (<60 vs. ≧60 percent rank), H3K9me2 (<30 vs. ≧30 percent rank for the RTOG TMA or <25 vs. ≧25 percent rank for the UCLA Stage I/II TMA) and H3K18ac (<35 vs. ≧35 percent rank). Survival estimates were generated and visualized using the Kaplan-Meier method and survival curves were compared using the log-rank test. Multivariate Cox proportional hazards models were used to test statistical independence and significance of multiple predictors. Overall survival time was measured from the date of randomization (RTOG 9704 TMA) or date of surgery (UCLA Stage I/II TMA) to the date of death due to any cause or last follow-up. Disease-free survival time was only determined for RTOG 9704 and was measured from the date of randomization to the date of first disease-free failure event defined as local or regional disease relapse, distant disease, second primary or death due to any cause. […]
# [2] = test system: pancreatic adenocarcinoma; details: setting of fluorouracil-based chemoradiation; resected pancreatic cancer; cited from earlier work
Structure (SMILES),"overall or disease-free survival, gemcitabine or 5-FU ([1]; data not shown)","overall survival, 5-FU versus gemcitabine ([1]; low H3K4me2 subgroup, data not shown)","disease-free survival, 5-FU versus gemcitabine ([1]; low H3K4me2 subgroup, log rank test p=0.014)","disease-free survival, 5-FU versus gemcitabine ([1]; low H3K18ac subgroup, log rank test p=0.015)",survival benefit of adjuvant gemcitabine over adjuvant 5-FU [2]
"O=c1[nH]cc(F)c(=O)[nH]1 [5-FU, 5-fluorouracil]",no significant differences,non-significant trend towards worse overall survival,worse disease-free survival,worse disease-free survival,–
Nc1ccn([C@@H]2O[C@H](CO)[C@@H](O)C2(F)F)c(=O)n1 [gemcitabine],no significant differences,–,–,–,non-statistically significant survival benefit
